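Method: 48-hour compound exposure of cells in 96-well plates, five concentrations, linear interpolation of endpoints. The concentration for full growth arrest is given as TGI.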
Experiments:
Assay in all cases: NCI-60 cell line screen, 48 h
A549 NSCLC = test system: A549 NSCLC
ACHN renal = test system: ACHN renal
HOP-62 NSCLC = test system: HOP-62 NSCLC
HT29 colon = test system: HT29 colon
KM12 colon = test system: KM12 colon
MOLT-4 leukemia = test system: MOLT-4 leukemia
NCI-H460 lung = test system: NCI-H460 lung
NCI-H522 lung = test system: NCI-H522 lung
OVCAR-3 ovarian = test system: OVCAR-3 ovarian
OVCAR-4 ovarian = test system: OVCAR-4 ovarian
PC-3 prostate = test system: PC-3 prostate
RXF 393 renal = test system: RXF 393 renal
SF-295 CNS = test system: SF-295 CNS
SK-OV-3 ovarian = test system: SK-OV-3 ovarian
SNB-75 CNS = test system: SNB-75 CNS
UACC-257 melanoma = test system: UACC-257 melanoma
UACC-62 melanoma = test system: UACC-62 melanoma
MALME-3M melanoma = test system: MALME-3M melanoma

SMILES | TGI (A549 NSCLC) [µM] | TGI (ACHN renal) [µM] | TGI (HOP-62 NSCLC) [µM] | TGI (HT29 colon) [µM] | TGI (KM12 colon) [µM] | TGI (MOLT-4 leukemia) [µM] | TGI (NCI-H460 lung) [µM] | TGI (NCI-H522 lung) [µM] | TGI (OVCAR-3 ovarian) [µM] | TGI (OVCAR-4 ovarian) [µM] | TGI (PC-3 prostate) [µM] | TGI (RXF 393 renal) [µM] | TGI (SF-295 CNS) [µM] | TGI (SK-OV-3 ovarian) [µM] | TGI (SNB-75 CNS) [µM] | TGI (UACC-257 melanoma) [µM] | TGI (UACC-62 melanoma) [µM] | TGI (MALME-3M melanoma) [µM]
Cc1ccc(N=NC(=Nc2ccc(Cl)cc2)c2ccc(N(CCC#N)CCC#N)cc2)cc1 | > 100 | > 100 | > 100 | > 100 | > 100 | > 100 | > 100 | 66 | > 100 | > 100 | 92 | > 100 | > 100 | > 100 | > 100 | 76.1 | > 100 | –
C=CCN1C[C@H](C)N([C@@H](c2ccc(C(=O)N3CCCCC3)cc2)c2cccc(OC)c2)C[C@H]1C | > 100 | > 100 | > 100 | > 100 | > 100 | > 100 | > 100 | 55 | > 100 | > 100 | 72.2 | > 100 | > 100 | > 100 | > 100 | 50 | 64.8 | 40.7
COc1cc(/C=N\c2nc(-c3ccc(NS(=O)(=O)c4ccc(Cl)c(OC)c4)cc3)cs2)ccc1O | > 100 | > 100 | > 100 | > 100 | > 100 | > 100 | – | 60.9 | > 100 | > 100 | > 100 | 80.8 | > 100 | > 100 | > 100 | – | 36.5 | > 100
Nc1ccc(Oc2ccc(C3(c4ccc(Oc5ccc(N)cc5)cc4)C4CC5CC(C4)CC3C5)cc2)cc1 | 42.2 | > 62.9 | 32.3 | 24.7 | 17.7 | > 100 | > 100 | > 59.7 | 9.78 | > 74 | > 52.9 | 20.9 | 73.8 | – | > 100 | > 100 | 49.1 | > 64.2
CC(=O)Oc1ccc2cc(Oc3ccc(Cl)c(Cl)c3)c(=O)oc2c1 | 94.8 | 72.6 | 50.6 | > 100 | 48.7 | > 100 | 66 | 46.5 | 50 | > 100 | 53.3 | 65.9 | > 100 | – | > 100 | 85.1 | – | 94.1
CN(C)CCCSc1nc2c(c(=N)n1-c1ccccc1)c(=S)n(-c1ccccc1)c(=S)n2-c1ccccc1 | 4.58 | 3.22 | 3.4 | – | 3.5 | 3.28 | 3.24 | 3.42 | 3.12 | 3.42 | 3.14 | 3.06 | 10.6 | 6.86 | 3.05 | 3.32 | 3.23 | 3.6
C=C(C)[C@@]1(O)CCCC[C@@H]1CC(Sc1ccccc1)Sc1ccccc1 | 34.4 | > 100 | 35 | 42.5 | 35.1 | 32.5 | 29.4 | 26.5 | – | 29.1 | 34.8 | 29.2 | 32.8 | 39.6 | 30 | 48.7 | > 100 | 26.2
CC(C)(C)OC(=O)NC(Cc1ccc(O)cn1)C(=O)O (stereo not drawn) | > 100 | > 100 | > 100 | > 100 | > 100 | > 100 | > 100 | > 100 | > 100 | > 100 | > 100 | > 100 | > 100 | – | > 100 | > 100 | – | > 100
COc1cc2cc(C(=O)Nc3cc4n(n3)-c3ccccc3C4)[nH]c2c(OC)c1OC | 7.63 | 17.6 | 6.43 | 25.5 | 7.83 | 2.2 | 7.1 | 4.13 | 11.8 | 6.16 | 10.4 | 50 | 11.6 | 19.4 | 13.9 | 9.26 | – | 6.43
O=C1/C(=C/c2ccco2)N=C2Sc3c(nc[nH]c3=O)N12 | > 100 | > 100 | > 100 | > 100 | > 100 | > 100 | – | > 100 | > 100 | > 100 | > 100 | > 100 | > 100 | > 100 | > 100 | > 100 | – | > 100
N#Cc1ccc(N2CCOCC2)cc1 | > 100 | > 100 | > 100 | > 100 | > 100 | > 100 | > 100 | > 100 | > 100 | > 100 | > 100 | > 100 | > 100 | > 100 | > 100 | > 100 | > 100 | –
COC(=O)c1ccccc1NC(=NC1CCCCCC1)NS(=O)(=O)c1ccc(C)cc1 | > 100 | > 100 | > 100 | > 100 | > 100 | > 100 | > 100 | > 100 | > 100 | > 100 | > 100 | > 100 | > 100 | > 100 | > 100 | > 100 | > 100 | –
CCN(CC)C1CCC(C2c3cc4c(cc3OC(N3CCOCC3)C2C)OCO4)CC1 (stereo not drawn) | > 100 | > 100 | > 70.3 | 25.7 | > 100 | > 68.2 | > 100 | 72.5 | 99.1 | > 100 | > 100 | 52.7 | > 100 | – | > 100 | > 100 | > 100 | 90.7

From PubChem BioAssay (NCI)
